# Assay results reported in US20130055471A1, “Transgenic Ozone-Resistant Plants” (priority 2009, published 2013).
# Entries after “also recorded” stand apart in the source; their conditions may differ.
# Tests used:
# [1] = test system: Cotton; experiment: Total dark respiration and SHAM-sensitive AOX by phase shift fluorescence, cotton leaf sections; assay type: in vivo, Gossypium spp.; conditions: for increase of AOX respiration compared to the initial AOX respiration rate: ontogenic phase in 0 ppbv ozone ambient
# Source text: All plantings were done at day 0. shifting plants to new ozone background for all plants=day 70. […] 60 ppb plants after 8 days (=day 78) in 0 ppb still act as if in 60 ppb. Sugar Cane: plants from 0 ppb, after having their first 70 days of development in 0 ppb, stayed for the nex 33 days (till day 103) in 60 ppb before being placed back in their original 0 ppb.
# Ozone generators (model OP-35-3P, Grupo Interozone, Brazil) were coupled to ozone monitors (model 202, 2B Technologies, Inc. USA; dynamic range of 1.5 ppbv to 100 ppmv of ozone; precision 1.5 ppbv or 2% of the reading) using a ozone monitor—generator interface (Engineering dep. Crops Advance Brazil). […] This was used as the upper limit for phytotron number one. Phytotron number two was set at 30 ppbv average ozone. Phytotron number three was set at 60 ppbv average ozone. Ozone levels of phytotron number two and three were permanently measured at 10 second intervals and averaged per minute. Each ozone monitor fed averaged values over an analog output to an ozone monitor—ozone generator interface. Hysteresis was set at +/−5 ppbv. Ozone levels were monitored close to the inlet of the two internal circulation ventilators. The ozone generators were adapted to accept an external digital signal from the interface.
# Respiration of plant material was tested as follows: Partial oxygen pressure drops due to oxygen consumption as result of dark respiration were measured using phase shift fluorescence measurement. For this, a NeoFox™ Phase Measurement System was used (Fluorometer Bench version using a QBIF600-VIS-NIR laboratory-grade bifurcated optical fiber with FOXY-R-8 cm overcoated fluorescence oxygen needle sensor, Ocean Optics Inc. USA).
# Fluorescence phase shift was expressed as Tau in microseconds (μs) and has an inverse and linear relation with the partial oxygen pressure.
# Salicylhydroxamic acid (SHAM) (99%, Sigma-Aldrich Brasil Ltda. Sao Paulo, Brazil) was used as an AOX inhibitor. The soluble sodium salicylhydroxamate salt was prepared by titrating SHAM with 0.1 M sodium hydroxide until neural pH. A stock solution ([…]) was prepared containing 300 ml/L ethanol from initial dissolving SHAM (same abbreviation is used for the salicylhydroxamate salt). From the stock solution a 20 mmol/L salicylhydroxamate final test solution was prepared by taking 12.3 ml stock solution and completing till 100 ml with a phosphate buffer solution (pH 7). The final SHAM test solution thus contained 3.7% residual ethanol. For proper control, the comparative test solution was also provided with 3.7 ml of ethanol per 100 ml of phosphate buffer solution (pH 7). To both solutions two drops of wetting agent (Silwet L-77 AG, GE Silicones Inc. USA) were added per 25 ml of test solution.
# Plant material collected was always the first fully grown leaf counting from the apical point downwards or outwards (e.g. for monocotyls). […] Per test, four leafs from four different plants were sampled. Cotton leafs were cut in half along the mid nerve. Using a clipper, 16 leaf sections of equal surface area of 400.9 mm2 each were cut, one from each base half and one from each top half part giving 4 sections per leaf and 16 sections per test. The leaf sections were distributed equally over two sub samples, one with and one without salicylhydroxamate. Using a chirurgical blade, all sections were given 7 parallel cuts (through and through) at approximately 2.5 mm apart over almost the full length of the section to guarantee lateral infiltration of the test solutions and gas exchange.
# Within 10 minutes of plant sampling the sections were cut, initial subsample weight was registered using a high precision laboratory scale and the subsamples were placed in their solutions with and without salicylhydroxamate for 60 minutes in the dark, to guarantee dark adaptation.
# Each sample contained 4 leaves, 4 sections per leaf providing 16 sections, 8 per subsample. […]
# [2] = test system: Sugarcane plants; experiment: AOX and total dark respiration in sugarcane exposed to various levels of ozone; assay type: in vivo, Saccharum spp.; conditions: for relative AOX, integration of the parabolic function yields / absolute AOX, integration of the parabolic function yields: 60 ppbv
# Source text: For sugarcane 4 plantlets per pot were provided and these plantlets were transplanted from the agar following washing of their root system with nutrient solution (see below) in order to remove residual agar. Every sugar cane pot was provided with a dome consisting of a 5 litre water flask (PP) of which the bottom was removed creating a 30 cm high dome. Crepe-tape was used to provide an air-tight connection between the bottom rim of the flask and the planting pot. The 40 mm screw cap on top functioned as a ventilation valve, initially maintaining near 100% RV to prevent the plantlets from drying out. Directly after transplanting, the sugar cane plantlets were placed in a phytotron (4 pots per phytotron) more in particular in acrylic cabinets created therein (see below). The sugar cane domes were removed 10 days after transplanting. All plantings were done at day 0. shifting plants to new ozone background for all plants=day 70. […] 60 ppb plants after 8 days (=day 78) in 0 ppb still act as if in 60 ppb. Sugar Cane: plants from 0 ppb, after having their first 70 days of development in 0 ppb, stayed for the nex 33 days (till day 103) in 60 ppb before being placed back in their original 0 ppb. […] Sugarcane plants were grown in the same manner as described above in Example 2. The AOX and total dark respiration were measured for plants exposed to various levels of ozone as described above in Example 2.
# [3] = test system: Corn; experiment: Full leaf Corn Total Dark Respiration (TDR) measurements; assay type: in vivo, Zea mays L.
# Source text: (§1) Ozone generators (model OP-35-3P, Grupo Interozone, Brazil) were coupled to ozone monitors (model 202, 2B Technologies, Inc. […] Crops Advance Brazil). […] This was used as the upper limit for phytotron number one. […] Ozone levels of phytotron number two and three were permanently measured at 10 second intervals and averaged per minute. Each ozone monitor fed averaged values over an analog output to an ozone monitor-ozone generator interface. Hysteresis was set at +/-5 ppbv. Ozone levels were monitored close to the inlet of the two internal circulation ventilators. The ozone generators were adapted to accept an external digital signal from the interface. Respiration of plant material was tested as follows: Partial oxygen pressure drops due to oxygen consumption as result of dark respiration were measured using phase shift fluorescence measurement. For this, a NeoFoxTM Phase Measurement System was used (Fluorometer Bench version using a […] laboratory-grade bifurcated optical fiber with FOXY-R-8 cm overcoated fluorescence oxygen needle sensor, Ocean Optics Inc. USA). Fluorescence phase shift was expressed as Tau in microseconds (μs) and has an inverse and linear relation with the partial oxygen pressure. […] In addition, full leaf Total Dark Respiration (TDR) measurements without the use of any pre-treatment solution (no SHAM and pretreatment control) were executed for cotton, corn and rice. Data (tables 2, 3 and 4) show clear positive correlation between a) total respiration per unit of fresh weight and ozone level, and b) total respiration per unit of dry weight and ozone level.
# [4] = test system: Rice; experiment: Full leaf Rice Total Dark Respiration (TDR) measurements; assay type: in vivo, Oryza sativa L.
# Source text: as §1
# [5] = test system: Cotton; experiment: Full leaf Cotton Total Dark Respiration (TDR) measurements; assay type: in vivo, Gossypium spp.
# Source text: as §1
# [6] = 0 →30 ppbv ozone: plants grown in 0 ppvb O3 and transferred to 30 ppvb O3
# [7] = 0 →60 ppbv ozone: plants grown in 0 ppvb O3 and transferred to 60 ppvb O3 (day 70, 7 days)
# [8] = 0 →60 →0 ppbv ozone: grown in 0 ppvb O3, transferred to 60 ppvb O3 and transferred back to 0 ppvb O3
# [9] = 60 →0 ppbv ozone: plants grown in 60 ppvb O3 and transferred to 0 ppvb O3 (day 70, 8 days)
# [10] = ozone concentration during growth 30 ppbv
# [11] = ozone concentration during growth 60 ppbv
structure (smiles),measurement,setting,value
O=[O+][O-] [ozone],AOX component (arb units),[1]; [6],3.26 arb units
same,AOX/TDR,[1]; [6],30.3%
same,AOX/TDR relative to initial equilibrium,[1]; [6],116.5%
same,TDR excl AOX dTau/t (μs/s) without SHAM,[1]; [6],7.51E−06 μs/s
same,TDR incl AOX dTau/t (μs/s) with SHAM,[1]; [6],1.08E−05 μs/s
same,AOX component (arb units),[1]; [7],3.77 arb units
same,AOX/TDR,[1]; [7],39.6%
same,AOX/TDR relative to initial equilibrium,[1]; [7],152.5%
same,TDR excl AOX dTau/t (μs/s) without SHAM,[1]; [7],5.75E−06 μs/s
same,TDR incl AOX dTau/t (μs/s) with SHAM,[1]; [7],9.52E−06 μs/s
same,AOX component (arb units),[1]; [8],2.95 arb units
same,AOX/TDR,[1]; [8],25.0%
same,AOX/TDR relative to initial equilibrium,[1]; [8],96.2%
same,TDR excl AOX dTau/t (μs/s) without SHAM,[1]; [8],8.87E−06 μs/s
same,TDR incl AOX dTau/t (μs/s) with SHAM,[1]; [8],1.18E−05 μs/s
same,AOX component (arb units),[1]; [9],3.97 arb units
same,AOX/TDR,[1]; [9],35.8%
same,AOX/TDR relative to initial equilibrium,[1]; [9],100.5%
same,TDR excl AOX dTau/t (μs/s) without SHAM,[1]; [9],7.13E−06 μs/s
same,TDR incl AOX dTau/t (μs/s) with SHAM,[1]; [9],1.11E−05 μs/s
same,increase of AOX respiration compared to the initial AOX respiration rate,[1]; placed in the 30 ppbv ozone ambient,16.5%
same,increase of AOX respiration compared to the initial AOX respiration rate,[1]; placed in the 60 ppbv ozone ambient,52.5%
same,AOX respiration after return to the 0 ppbv ozone ambient,"[1]; ontogenic phase in 0 ppbv, passed time in the 60 ppbv ozone ambient",returned fully to its initial level
same,AOX component (arb units),[1]; plants grown in 30 ppvb O3,2.97 arb units
same,AOX/TDR,[1]; plants grown in 30 ppvb O3,29.9%
same,TDR excl AOX dTau/t (μs/s) without SHAM,[1]; plants grown in 30 ppvb O3,6.96E−06 μs/s
same,TDR incl AOX dTau/t (μs/s) with SHAM,[1]; plants grown in 30 ppvb O3,9.93E−06 μs/s
same,AOX component (arb units),[1]; plants grown in 60 ppvb O3,3.33 arb units
same,AOX/TDR,[1]; plants grown in 60 ppvb O3,35.6%
same,AOX/TDR relative to initial equilibrium,[1]; plants grown in 60 ppvb O3,100.0%
same,TDR excl AOX dTau/t (μs/s) without SHAM,[1]; plants grown in 60 ppvb O3,6.03E−06 μs/s
same,TDR incl AOX dTau/t (μs/s) with SHAM,[1]; plants grown in 60 ppvb O3,9.36E−06 μs/s
same,AOX respiration during stay in the zero ozone level ambient,[1]; plants grown up in the 60 ppbv ozone level ambient,did not lower their AOX respiration
same,"relative AOX, integration of the parabolic function yields",[2]; Time of Day 5.3,0.0%
same,"absolute AOX, integration of the parabolic function yields",[2]; Time of Day 5.6,0.0
same,"absolute AOX, integration of the parabolic function yields",[2]; Time of Day 23.0,51.9
same,"relative AOX, integration of the parabolic function yields",[2]; Time of Day 24.3,436%
same,AOX at 10:00 am (% of TDR),"[2]; 70 days 0 ppbv, 33 days at 60 ppbv, returned to 0 ppbv, after 5 days",approximately 5 % of TDR
same,AOX at about 10:00 am (% of TDR),"[2]; 70 days 0 ppbv, 33 days at 60 ppbv, then returned to 0 ppbv, first",approximately 35 % of TDR
same,AOX level after shift to 0 ppbv,"[2]; 70 days at 60 ppbv, thereafter 33 days in 0 ppbv",maintained their 60 ppb AOX levels; also recorded: maintain their high AOX; also recorded: consistently high AOX levels
same,AOX 60 ppbv/AOX 0 ppbv (dTau/dt/dTau/dt),[2]; absolute AOX,169%
same,AOX 60 ppbv/AOX 0 ppbv (%/%),[2]; relative AOX,154%
same,Normalized dark respiration activity (dwt),[3]; [10],14.7 h/Tau/g dry weigth/40 ml
same,Normalized dark respiration activity (fwt),[3]; [10],78.3 h/Tau/g fresh weigth/40 ml
same,Normalized dark respiration activity (dwt),[3]; [11],14.5 h/Tau/g dry weigth/40 ml
same,Normalized dark respiration activity (fwt),[3]; [11],72.1 h/Tau/g fresh weigth/40 ml
same,Normalized dark respiration activity (dwt),[4]; [10],8.2 h/Tau/g dry weigth/40 ml
same,Normalized dark respiration activity (fwt),[4]; [10],29.2 h/Tau/g fresh weigth/40 ml
same,Normalized dark respiration activity (dwt),[4]; [11],7.6 h/Tau/g dry weigth/40 ml
same,Normalized dark respiration activity (fwt),[4]; [11],29.4 h/Tau/g fresh weigth/40 ml
same,Normalized dark respiration activity (dwt),[5]; [10],13.4 h/Tau/g dry weigth/40 ml
same,Normalized dark respiration activity (fwt),[5]; [10],72.6 h/Tau/g fresh weigth/40 ml
same,Normalized dark respiration activity (dwt),[5]; [11],12.7 h/Tau/g dry weigth/40 ml
same,Normalized dark respiration activity (fwt),[5]; [11],67.9 h/Tau/g fresh weigth/40 ml
